Literature values, collected in patent publication US8173175B2, “Ethanolic and/or aqueous composition of an ammoniacal solution of alkaline metal salts of azide, mainly sodium and potassium” (priority 2005, dated 2012).

What was measured:
catalase = details: grapevine buds (Nir and Lavee 1993); for H2CN2 according to the manufacturer
grapevine buds = details: Nir and Lavee 1993

SMILES | inhibition of catalase activity (catalase) | effect on the budding (grapevine buds) | European Union toxicity classification (EU catalogue) | USEPA toxicity category (United States Environmental Protection Agency classification)
Nc1ncn[nH]1 [1,4-triazolamine] | able of inhibit the catalase activity | does not have any effect on the budding |  | 
N#CN [H2CN2, hydrogen cyanamide] | inhibition of the enzyme catalase |  | toxic, harmful compound in contact with the skin and eyes and skin irritant | category I (acute toxic)
